Measurements taken from US11608325B2, “Polycrystalline form of dehydrophenylahistin-like compound, and manufacturing and purification method and application thereof” (Shenzhen Huahong Marine Biomedicine Co., Ltd., priority 2016, dated 2023).
Entries after “also recorded” stand apart in the source; their conditions may differ.

Columns and labels:
Assay type in all cases: physicochemical
[1] = Stability study of plinabulin polymorphs
[2] = Hygroscopicity test (Chinese Pharmacopoeia 2015 Volume IV, general rule 9103); conditions: for Weight gain: Left for 24 h
Experimental: The test was conducted according to the general rule 9103 of guiding principle for drug hygroscopicity test in Chinese Pharmacopoeia 2015 edition Volume IV, and the results are shown in Table 6.

[3] = High-humidity stress test (25° C., 90% RH); conditions: for stability / transformation under high-humidity condition: stress testing, high humidity (25° C., 90% RH); for Appearance / Content (HPLC) (calculated as an anhydride) / Relevant substance Impurity D / Relevant substance Total impurities / Relevant substance Impurity A: High-humidity test/25° C., 90% RH; for Relevant substance Impurity A: LOQ (0.035%)
Experimental: (§1) In accordance with the general rule 9001 of guiding principles for stability tests of APIs and preparations in the Chinese Pharmacopoeia 2015 edition Volume IV, stress testing of the δ-crystalline form of (3Z,6Z)-3-benzylidene-6-[(5-tert-butyl-1H-imidazol-4-yl)deuteromethylene]piperazine-2,5-dione was conducted under high temperature, high humidity and illumination conditions, the sample batch number was 20150401, and the results are shown in Tables 7, 8 and 9 below.

[4] = Transformation of other crystalline forms under humidity or in water
[5] = High-temperature stress test (60° C.); conditions: for stability under high-temperature condition: stress testing, high temperature (60° C.); for Appearance / Content (HPLC) (calculated as an anhydride) / Relevant substance (HPLC) Impurity D / Relevant substance (HPLC) Total impurities / Relevant substance (HPLC) Impurity A: High-temperature test/60° C.; for Relevant substance (HPLC) Impurity A: LOQ (0.035%)
Experimental: as §1

[6] = Illumination stress test (4500 Lx±500 Lx); conditions: for Appearance / Content (HPLC) (calculated as an anhydride) / Relevant substance (HPLC) Impurity D / Relevant substance (HPLC) Total impurities / Relevant substance (HPLC) Impurity A: Illumination test/4500Lx ± 500Lx; for Relevant substance (HPLC) Impurity A: LOQ (0.035%); for stability under illumination condition: stress testing, illumination (4500 Lx±500 Lx), monohydrate
Experimental: as §1

[7] = 6-month accelerated stability test (40° C.±2° C./75%±5% RH)
Experimental: Meanwhile, a 6-month accelerated stability test was conducted on the δ-crystalline form of (3Z,6Z)-3-benzylidene-6-[(5-tert-butyl-1H-imidazol-4-yl)deuteromethylene]piperazine-2,5-dione. The sample batch number was 20150404. Factory packaging was simulated. The test conditions were 40° C.±2° C./75%±5% RH.

[8] = after being stirred in water for 3 hours
[9] = listed as 20150401, monohydrate
[10] = listed as 20150402, monohydrate
[11] = listed as 20150403, monohydrate
[12] = listed as (3Z,6Z)-3-benzylidene-6-[(5-tert-butyl-1H-imidazol-4-yl)deuteromethylene]piperaz, monohydrate

SMILES: CC(C)(C)c1[nH]cnc1/C=c1\[nH]c(=O)/c(=C/c2ccccc2)[nH]c1=O [a-crystalline form, (3Z,6Z)-3-benzylidene-6-[(5-tert-butyl-1H-imidazol-4-yl)methylene]piperazine-2,5-dione]
- Hygroscopicity ([1]; plinabulin crystalline forms): certain hygroscopicity
- transformation of crystalline form ([1]; under high humidity condition): easily transformed into a d-crystalline form

SMILES: CC(C)(C)c1[nH]cnc1/C=c1\[nH]c(=O)/c(=C/c2ccccc2)[nH]c1=O.O [d-crystalline form, (3Z,6Z)-3-benzylidene-6-[(5-tert-butyl-1H-imidazol-4-yl)methylene]piperazine-2,5-dione monohydrate]
- stability [1]: high stability
- molecular stability ([1]; during preparation and storage processes): excellent molecular stability
- stability as solid API in stress testing ([1]; high temperature, high humidity and illumination conditions): remain stable

SMILES: [2H]/C(c1nc[nH]c1C(C)(C)C)=c1/[nH]c(=O)/c(=C/c2ccccc2)[nH]c1=O [α-crystalline form, (3Z,6Z)-3-benzylidene-6-[(5-tert-butyl-1H-imidazol-4-yl)deuteromethylene]piperazine-2,5-dione]
- Hygroscopicity [2]: certain hygroscopicity
- stability / transformation under high-humidity condition [3]: easily transformed into the δ-crystalline form; also recorded: absorbs moisture easily to transform into δ-crystalline form
- transformation of crystalline form ([4]; under 60% humidity condition): may partially transform into δ-crystalline form

SMILES: [2H]/C(c1nc[nH]c1C(C)(C)C)=c1/[nH]c(=O)/c(=C/c2ccccc2)[nH]c1=O [β-crystalline form, (3Z,6Z)-3-benzylidene-6-[(5-tert-butyl-1H-imidazol-4-yl)deuteromethylene]piperazine-2,5-dione]
- Hygroscopicity [2]: no hygroscopicity
- stability under high-temperature condition [5]: not stable enough
- transformation of crystalline form [4, 8]: most of which may transform into δ-crystalline form

SMILES: [2H]/C(c1nc[nH]c1C(C)(C)C)=c1/[nH]c(=O)/c(=C/c2ccccc2)[nH]c1=O [γ-crystalline form, (3Z,6Z)-3-benzylidene-6-[(5-tert-butyl-1H-imidazol-4-yl)deuteromethylene]piperazine-2,5-dione]
- Hygroscopicity [2]: no hygroscopicity
- stability under high-temperature condition [5]: not stable enough
- transformation of crystalline form [4, 8]: most of which may transform into δ-crystalline form

SMILES: O.[2H]/C(c1nc[nH]c1C(C)(C)C)=c1/[nH]c(=O)/c(=C/c2ccccc2)[nH]c1=O [δ-crystalline form, (3Z,6Z)-3-benzylidene-6-[(5-tert-butyl-1H-imidazol-4-yl)deuteromethylene]piperazine-2,5-dione monohydrate]
- Weight gain [2, 9]: 0.20 mg
- Weight gain [2, 10]: 0.24 mg
- Weight gain [2, 11]: 0.20 mg
- weight gain percentage ([2]; bottle opened for 24 hours): less than 0.2%
- Hygroscopicity [2, 9]: none
- Hygroscopicity [2, 10]: none
- Hygroscopicity [2, 11]: none
- Hygroscopicity ([2]; monohydrate): basically not hygroscopic
- Appearance ([5]; day 0): Yellow powder
- Content (HPLC) (calculated as an anhydride) ([5]; day 0): 99.7%
- Relevant substance (HPLC) Impurity D ([5]; day 0): Impurity D: 0.06%
- Relevant substance (HPLC) Total impurities ([5]; day 0): 0.07%
- Relevant substance (HPLC) Impurity A ([5]; day 0): Impurity A: <LOQ
- Appearance ([5]; day 5): Yellow powder
- Content (HPLC) (calculated as an anhydride) ([5]; day 5): 99.4%
- Relevant substance (HPLC) Impurity D ([5]; day 5): Impurity D: 0.06%
- Relevant substance (HPLC) Total impurities ([5]; day 5): 0.07%
- Relevant substance (HPLC) Impurity A ([5]; day 5): Impurity A: <LOQ
- Appearance ([5]; day 10): Yellow powder
- Content (HPLC) (calculated as an anhydride) ([5]; day 10): 99.8%
- Relevant substance (HPLC) Impurity D ([5]; day 10): Impurity D: 0.06%
- Relevant substance (HPLC) Total impurities ([5]; day 10): 0.07%
- Relevant substance (HPLC) Impurity A ([5]; day 10): Impurity A: <LOQ
- stability under high-temperature condition [5, 12]: remain stable
- stability under high-temperature condition ([5]; monohydrate): very stable; also recorded: relatively stable
- Appearance ([3]; day 0): Yellow powder
- Content (HPLC) (calculated as an anhydride) ([3]; day 0): 99.7%
- Relevant substance Impurity D ([3]; day 0): Impurity D: 0.06%
- Relevant substance Total impurities ([3]; day 0): 0.07%
- Relevant substance Impurity A ([3]; day 0): Impurity A: <LOQ
- Appearance ([3]; day 5): Yellow powder
- Content (HPLC) (calculated as an anhydride) ([3]; day 5): 99.5%
- Relevant substance Impurity D ([3]; day 5): Impurity D: 0.06%
- Relevant substance Total impurities ([3]; day 5): 0.07%
- Relevant substance Impurity A ([3]; day 5): Impurity A: <LOQ
- Appearance ([3]; day 10): Yellow powder
- Content (HPLC) (calculated as an anhydride) ([3]; day 10): 99.6%
- Relevant substance Impurity D ([3]; day 10): Impurity D: 0.06%
- Relevant substance Total impurities ([3]; day 10): 0.07%
- Relevant substance Impurity A ([3]; day 10): Impurity A: <LOQ
- stability / transformation under high-humidity condition [3, 12]: remain stable
- stability / transformation under high-humidity condition ([3]; monohydrate): very stable; also recorded: relatively stable
- Appearance ([6]; day 0): Yellow powder
- Content (HPLC) (calculated as an anhydride) ([6]; day 0): 99.7%
- Relevant substance (HPLC) Impurity D ([6]; day 0): Impurity D: 0.06%
- Relevant substance (HPLC) Total impurities ([6]; day 0): 0.07%
- Relevant substance (HPLC) Impurity A ([6]; day 0): Impurity A: <LOQ
- Appearance ([6]; day 5): Yellow powder
- Content (HPLC) (calculated as an anhydride) ([6]; day 5): 100.1%
- Relevant substance (HPLC) Impurity D ([6]; day 5): Impurity D: 0.05%
- Relevant substance (HPLC) Total impurities ([6]; day 5): 0.05%
- Relevant substance (HPLC) Impurity A ([6]; day 5): Impurity A: <LOQ
- Appearance ([6]; day 10): Yellow powder
- Content (HPLC) (calculated as an anhydride) ([6]; day 10): 99.8%
- Relevant substance (HPLC) Impurity D ([6]; day 10): Impurity D: 0.05%
- Relevant substance (HPLC) Total impurities ([6]; day 10): 0.05%
- Relevant substance (HPLC) Impurity A ([6]; day 10): Impurity A: <LOQ
- stability under illumination condition ([6]; listed as (3Z,6Z)-3-benzylidene-6-[(5-tert-butyl-1H-imidazol-4-yl)deuteromethylene]piperaz): remain stable
- stability under illumination condition [6]: very stable; also recorded: relatively stable
- stability in accelerated stability test ([7]; 6 months, monohydrate): very stable; also recorded: excellent stability
- Content (HPLC) (calculated as an anhydride) ([7]; month 0): 99.5%
- Relevant substance (HPLC) Impurity D ([7]; month 0): 0.06%
- Relevant substance (HPLC) Other single impurity ([7]; month 0): Not detected
- Relevant substance (HPLC) Total impurities ([7]; month 0): 0.07%
- Relevant substance (HPLC) Impurity A ([7]; month 0, LOQ (0.035%)): <LOQ
- Content (HPLC) (calculated as an anhydride) ([7]; month 1): 99.6%
- Relevant substance (HPLC) Impurity D ([7]; month 1): 0.06%
- Relevant substance (HPLC) Other single impurity ([7]; month 1): Not detected
- Relevant substance (HPLC) Total impurities ([7]; month 1): 0.08%
- Relevant substance (HPLC) Impurity A ([7]; month 1, LOQ (0.035%)): <LOQ
- Content (HPLC) (calculated as an anhydride) ([7]; month 2): 100.2%
- Relevant substance (HPLC) Impurity D ([7]; month 2): 0.06%
- Relevant substance (HPLC) Other single impurity ([7]; month 2): Not detected
- Relevant substance (HPLC) Total impurities ([7]; month 2): 0.08%
- Relevant substance (HPLC) Impurity A ([7]; month 2, LOQ (0.035%)): <LOQ
- Content (HPLC) (calculated as an anhydride) ([7]; month 3): 99.8%
- Relevant substance (HPLC) Impurity D ([7]; month 3): 0.06%
- Relevant substance (HPLC) Other single impurity ([7]; month 3): Not detected
- Relevant substance (HPLC) Total impurities ([7]; month 3): 0.08%
- Relevant substance (HPLC) Impurity A ([7]; month 3, LOQ (0.035%)): <LOQ
- Content (HPLC) (calculated as an anhydride) ([7]; month 6): 99.7%
- Relevant substance (HPLC) Impurity D ([7]; month 6): 0.06%
- Relevant substance (HPLC) Other single impurity ([7]; month 6): Not detected
- Relevant substance (HPLC) Total impurities ([7]; month 6): 0.08%
- Relevant substance (HPLC) Impurity A ([7]; month 6, LOQ (0.035%)): <LOQ

SMILES: CC(C)O.[2H]/C(c1nc[nH]c1C(C)(C)C)=c1/[nH]c(=O)/c(=C/c2ccccc2)[nH]c1=O [ε-crystalline form, (3Z,6Z)-3-benzylidene-6-[(5-tert-butyl-1H-imidazol-4-yl)deuteromethylene]piperazine-2,5-dione monoisopropylate]
- stability under high-temperature condition [5]: not stable enough
